# Where two headings read alike, the source gives them in different places.
# How the values were obtained:
# [1] = system: advanced gastrointestinal tumors; assay: RGX-202 monotherapy or combination with FOLFIRI in subjects with advanced gastrointestinal tumors; type: in vivo, human
# Method: Method: Subjects with advanced gastrointestinal tumors (e.g., locally advanced and unresectable, or metastatic) were administered multiple doses of orally administered RGX-202 as a monotherapy or in combination with irinotecan, folinic acid, and fluorouracil. In the monotherapy arm of the study, RGX-202 was administered orally twice or three times daily on days 1-28 of each 28-day cycle. The dose regimen was dependent on the cohort in which the patient was enrolled. In the combination arm of the study, RGX-202 was administered in the same way as described for the monotherapy arm in combination with FOLFIRI. FOLFIRI was administered by intravenous administration of irinotecan (180 mg/m^2) over 90 minutes concurrently with intravenous administration of folinic acid (400 mg/m^2) over 2 hours, followed by fluorouracil (5-FU) (400 mg/m^2) intravenous bolus and then 5-FU (2400 mg/m^2) intravenous infusion over 46 hours, on days 1 and 15 of each 28-day cycle. During the dose escalation, subjects were evaluated for pharmacokinetics (using the method as described in Example 1), pharmacodynamics, safety, and efficacy of the drug.
# [2] = system: animal models of noninsulin-dependent diabetes; conditions: animal models of noninsulin-dependent diabetes (rats, monkeys, hamsters); cited from earlier work
# [3] = system: liver metastasis in gastrointestinal cancers; conditions: particularly liver metastasis in gastrointestinal cancers; WO2014/071067; cited from earlier work
# [4] = β-GPA plasma pharmacokinetics after RGX-202 BID dosing; type: in vivo, human; conditions: for AUC(0-t): read-out: Average AUC0-24
# Method: Method: Subjects were administered RGX-202 (a highly compressible salt form of β-GPA) in a regimen of 600 mg BID, 1,200 mg BID, 2,400 mg BID, or 3,600 mg BID, and plasma samples were taken from the subjects and tested using the protocol described below for levels of β-GPA over the course of 24 hours after administration.
# The analyte, β-GPA, and internal standard (IS), [13C415N3]-β-GPA, are extracted from 50.0 μL of human plasma by a protein precipitation extraction procedure. The extraction procedure begins with the addition of 50.0 μL of internal standard working solution to all wells except double blanks, which receive 50.0 μL of water. Next the plate is covered and vortexed. Then 500 μL of acetonitrile/methanol (50/50, v/v) is added to all wells. Next the plate is covered, vortexed and centrifuged. Using a Tomtec Quadra 4, 200 μL of the supernatant is transferred into a new plate. Then 300 μL acetonitrile/methanol (50/50, v/v) is added to all wells. The plate is then sealed and vortexed. The extracts are chromatographed under reverse phase conditions on a Luna HPLC column 50×2.0 mm, 3 μm column using a gradient system with 10 mM ammonium acetate in water and acetonitrile. The compounds are detected and quantified by tandem mass spectrometry in positive ion mode on a MDS Sciex API 4000 equipped with a Turbo Ionspray® interface.
# Solubility of β-GPA = type: physicochemical
# [5] = 1200 mg BID, human plasma, 1,200 mg BID
# [6] = 2400 mg BID, human plasma, 2,400 mg BID
# [7] = 3600 mg BID, human plasma, 3,600 mg BID
smiles,measurement,setting,value
[H]/N=C(\N)NCCC(=O)O [RGX-202],subjects exhibiting a partial response,"[1]; of the 10 subjects who received the monotherapy, at 3,600 mg BID after 40 weeks",one
same,subjects exhibiting stable disease,"[1]; of the 10 subjects who received the monotherapy, at doses of 1,200 mg BID, 2,400 mg BID and 3,600 mg BID",three
same,objective activity,[1]; subjects with advanced gastrointestinal tumors,activities were observed
same,dose limiting toxicity,"[1]; subjects with advanced gastrointestinal tumors, oral dose escalation, monotherapy or combination",did not exhibit dose limiting toxicity
"N=C(N)NCCC(=O)O [β-GPA, β-Guanidinopropionic acid]",effect on hyperglycemia,[2],ameliorate hyperglycemia
same,suppression of metastasis,[3],effective
same,Cmax,[4]; [5],4790 ng/mL
same,AUC(0-t),[4]; [5],45.2 µg·h/mL
same,Cmax,[4]; [6],26800 ng/mL
same,AUC(0-t),[4]; [6],165 µg·h/mL
same,Cmax,[4]; [7],47700 ng/mL
same,AUC(0-t),[4]; [7],241 µg·h/mL
same,AUC Dose Acc. Ratio,"[4]; human plasma, 600 mg BID",1.0
same,Cmax,"[4]; human plasma, 600 mg BID",1400 ng/mL
same,Cmax Dose Acc. Ratio,"[4]; human plasma, 600 mg BID",1.0
same,Dose Normalized Average Cmax,"[4]; human plasma, 600 mg BID",1.2 ng/mL
same,Dose-Normalized Average AUC0-24,"[4]; human plasma, 600 mg BID",13.1 ng·h/mL
same,AUC(0-t),"[4]; human plasma, 600 mg BID",15.7 µg·h/mL
same,AUC Dose Acc. Ratio,"[4]; human plasma, 1,200 mg BID",1.4
same,Cmax Dose Acc. Ratio,"[4]; human plasma, 1,200 mg BID",1.7
same,Dose Normalized Average Cmax,"[4]; human plasma, 1,200 mg BID",2.0 ng/mL
same,Dose-Normalized Average AUC0-24,"[4]; human plasma, 1,200 mg BID",18.8 ng·h/mL
same,AUC Dose Acc. Ratio,"[4]; human plasma, 2,400 mg BID",2.7
same,Cmax Dose Acc. Ratio,"[4]; human plasma, 2,400 mg BID",4.8
same,Dose Normalized Average Cmax,"[4]; human plasma, 2,400 mg BID",5.6 ng/mL
same,Dose-Normalized Average AUC0-24,"[4]; human plasma, 2,400 mg BID",34.3 ng·h/mL
same,AUC Dose Acc. Ratio,"[4]; human plasma, 3,600 mg BID",2.6
same,Cmax Dose Acc. Ratio,"[4]; human plasma, 3,600 mg BID",5.7
same,Dose Normalized Average Cmax,"[4]; human plasma, 3,600 mg BID",6.6 ng/mL
same,Dose-Normalized Average AUC0-24,"[4]; human plasma, 3,600 mg BID",33.5 ng·h/mL
same,solubility in organic solvents,Solubility of β-GPA; organic solvents,low solubility
same,solubility,Solubility of β-GPA; water,> 50 mg/mL
